Experimental findings from patent US20050220726A1, “Use of sugar esters in cosmetic and/or pharmaceutical preparations” (priority 2003, published 2005) are described below.

Assay [1] concerns bacterial collagenase (clostridium histolyticum). In words: Collagenase inhibition on FITC-marked gelatin. The class given is biochemical. As to conditions: 60 mins. at 20° C. The procedure: In the event of inflammation, skin proteases, for example collagenase, are released from the polymorphonuclear neutrophilic granulocytes or macrophages. A similar process takes place in the skin of elderly people on exposure to UV rays. As already mentioned, the proteases—also known as matrix metalloproteases (MMPs) through their content of central zinc ions—catalyze the fragmentation of connective tissue proteins. The test substances were tested for collagenase inhibition using bacterial collagenase (clostridium histolyticum) on gelatin marked with fluorochromium (FITC, Calbiochem) as a natural nutrient medium. The incubation time was 60 mins. at 20° C.; the hydrolysis of the substrate was monitored by fluorescence at 393 nm (excitation at 328 nm). The results are set out in Table 6 as the collagenase inhibition in %.

A further assay has as its system human keratinocytes. In words: Growth inhibition on human keratinocytes with EGF. The class given is cell-based. As to conditions: with EGF 10 ng/ml, 3 days, control = 100, control with EGF = 167. The procedure: Increased proliferation and differentiation of keratinocytes of the hair matrix leads to improved longer hair growth. The following test was carried out to determine the potential of the sugar esters for inhibiting hair growth which is visibly reflected in a reduction in the proliferation of human keratinocyte culture in vitro.
To this end, human keratinocytes were cultivated in a standard cell culture medium containing foetal calf serum (FCS). After incubation for 1 day at 37° C./5% CO2, the growth medium was replaced by standard medium containing 10 ng/ml epidermal growth factor (EGF) and various concentrations of sugar esters dissolved in ethanol (1% by volume).
After incubation for three days, the number of living cells was determined by determining the cell protein content by the Bradford method [Bradford, M. M., A rapid and sensitive method for the quantitation of microgram quantities of protein utilizing the principle of protein-dye binding. Anal. Biochem. (1977), Vol. 72, pp. 248-254].
The results of Table 8 represent the values of triple determinations on two batches expressed in % against a control of cell culture medium without sugar ester.

For assay [2], the system named is human leukaemic granulocytes. The experiment in a line: Anti-inflammatory activity: respiratory burst of granulocytes (zymosan, luminol). The class given is cell-based. As to conditions: + stimulation (zymosan), blank + stimulation = 100. The source says:
In the course of cutaneous inflammation, leucocytes, such as the polymorphonuclear neutrophilic granulocytes (PMNs) for example, are stimulated by peptides, such as cytokines for example, to emit messenger substances, such as leucotriene for example, which are released from activated or necrotic cells in the dermis. These activated PMNs release not only pro-inflammatory cytokinins, leucotrienes and proteases, but also ROS, such as superoxides and hypochlorite anions for example, of which the function is to destroy penetrated pathogenic germs or fungi. This activity of the PMNs during the inflammation is known as so-called respiratory burst. To investigate to what extent the test extracts can prevent or reduce the respiratory burst, a cell line of human leukaemic granulocytes of these PMNs was incubated together with the test substances at 37° C. and 5% by vol. CO2. After the respiratory burst had been initiated by addition of a yeast extract (zymosan) to the cell solution, the release of superoxide anions was determined through their reaction with luminol.

The test system of assay [3] is human fibroblasts. In words: Anti-stress effect on UV-A-damaged fibroblasts. The class given is cell-based. As to conditions: + UV-A 20 J/cm^2; for Cell proteins: blank sample = 100; for GSH/proteins: blank sample = 100, blank + UV-A = 65. The procedure: UV-A radiation in the 320 to 400 nm range induces oxidative stress which is mainly produced by the activation of photosensitive biological components which in turn catalyze the formation of ROS-like superoxide anions, hydrogen peroxide and singlet oxygen atoms. The anti-UV-A effect was tested on fibroblasts because UV-A radiation penetrates through the dermis where it causes oxidative damage by lipoperoxidation of the cell membrane and a reduction in the content of reduced glutathione (GHS). To this end, human fibroblasts were cultivated as described in a), exposed to UV-A rays (20 J/cm^2) and the cell counts and the GSH content subsequently determined. The results are set out in Table 3, where they are expressed in %-rel. against a blank sample, and represent the results of 3 series of measurements with triple determination.

In assay [4] the test system is Staphylococcus epidermidis. In words: Agar dilution method (MIC determination). The class given is cell-based. As to conditions: 18 to 24 h at 37° C. The procedure: (§1) The antibacterial activity of the test substances was tested by the diffusion method on agar plates or the agar dilution method. In this method, a round filter paper of defined diameter is first impregnated with the test solution and then applied to the surface of an agar plate inoculated beforehand with the test microorganisms. The size of the inhibition zones is then determined after defined times. In particular, it is possible by this method to determine the MIC (Minimum Inhibitory Concentration) as the lowest concentration of test substance with which complete inhibition of the microorganisms can be obtained. Agar dilution method (MIC determination). Various agars were prepared as described above, test substances were added in various concentrations, homogenized and dried. The Petri dishes were then inoculated with quantities of 2 μl of the bacterial suspension. After each drying step the Petri dishes were incubated for 18 to 24 h at 37° C. […] The results represent the averages of double determinations.

Assay [5] concerns Propionibacterium acnes. The experiment in a line: Agar dilution method (MIC determination). The format is cell-based. As to conditions: 18 to 24 h at 37° C. The procedure:
as §1
(In general: In agar dilution the substance is mixed into plates at graded concentrations.)

The test system of assay [6] is Staphylococcus aureus. In words: Agar dilution method (MIC determination). As to conditions: 18 to 24 h at 37° C. The format is cell-based. The procedure:
as §1

The subject of assay [7] is melanocytes (B16 cell line). In words: Inhibition of melanin synthesis in B16 melanocytes. The format is cell-based. As to conditions: 3 days, blank value = 100. The procedure: Melanin is the pigment responsible for the color of the skin and hair. It is formed in special organelles, the melanosomes, which occur in the melanocytes of the basal layer of the human epidermis. The biosynthesis of melanin begins with the amino acid tyrosine which is oxidized to DOPA (dihydroxyphenylalanine) in the presence of tyrosinase. The DOPA then polymerizes to melanin. […] After incubation for 3 days at 37° C./5% CO2, the nutrient medium was replaced by a solution containing the test substances in various concentrations. After incubation for another 3 days, the cell protein content (Bradford's method) and the content of synthesized melanin were determined through the optical density of the homogenizate at 475 nm. The results are expressed in % against a blank value and are set out in Table 7.

The test system of assay [8] is Staphylococcus epidermidis. The experiment in a line: Agar diffusion method, inhibition zones. The format is cell-based. As to conditions: filter paper with 20 μl test substance; 18 to 24 h at 37° C. The procedure: (§2) The antibacterial activity of the test substances was tested by the diffusion method on agar plates or the agar dilution method. In this method, a round filter paper of defined diameter is first impregnated with the test solution and then applied to the surface of an agar plate inoculated beforehand with the test microorganisms. The size of the inhibition zones is then determined after defined times. In particular, it is possible by this method to determine the MIC (Minimum Inhibitory Concentration) as the lowest concentration of test substance with which complete inhibition of the microorganisms can be obtained.
(§3) Agar diffusion method. The inoculum was prepared using a fresh culture in a stationary growth phase (after ca. 18-24 h) in a BHI solution (brain-heart Infusion). The bacterial suspension was adjusted to 0.5 MacFarland units, corresponding to 1.5 10^8 colony-forming units (cfu)/ml; the suspension was then diluted with a sodium chloride solution (1:100) to adjust a value of 1.5 10^6 cfu/ml. Mueller-Hinton agar (Staphylococcus epidermidis, Staphylococcus aureus) and Wilkins-Chalgrens agar containing 5% by weight sheep's blood (Propionibacterium acnes) were then sterilized for 15 mins. at 121° C. and then placed in Petri dishes. 2 to 4 ml of the bacterial suspension were then added to the Petri dishes, followed by drying at room temperature. The filter papers were impregnated with 20 μl of the test substances and applied to the surface of the agar plates. The inoculated Petri dishes were incubated for 18 to 24 h at 37° C. (the Petri dishes containing Propionibacterium acnes under anaerobic conditions) and the antimicrobial activity was then determined by determination of the growth inhibition zones. The results are set out in Table 10 and represent the diameters of the inhibition zones in mm.

Assay [9] concerns Propionibacterium acnes. The experiment in a line: Agar diffusion method, inhibition zones. The class given is cell-based. As to conditions: filter paper with 20 μl test substance; 18 to 24 h at 37° C., anaerobic. The procedure: as §2, §3
A general note: Agar diffusion results depend on both activity and mobility in agar.

Assay [10] concerns Staphylococcus aureus. The experiment in a line: Agar diffusion method, inhibition zones. The class given is cell-based. As to conditions: filter paper with 20 μl test substance; 18 to 24 h at 37° C. The procedure: as §2, §3
Assay [11] concerns human fibroblasts. In words: Regenerative effect and detoxifying potential: GSH in human fibroblasts. As to conditions: conc. 0.001 % w/v; 3 days in test solution; against blank sample = 100. The class given is cell-based. The procedure: Glutathione (GSH) is a special protein which is produced by the cells for protection against oxidative stress and environmental poisons, more particularly against heavy metals. The three amino acids involved in the reduced form of GSH are linked to special cytoplasmatic enzymes which need ATP for activation. An increase in the GSH concentration leads to an increase in the glutatione-S-transferase activity, a detoxifying enzyme. The stimulation for detoxification by the test substances was tested on human fibroblasts by measurement of the GSH. In a series of tests, fibroblasts were first incubated for 3 days at 37° C. in a nutrient solution and then for 3 days at the same temperature in a test solution. The protein content in the cells was then determined by the Bradford method and the GSH concentration by the Hissin method [cf. Analytical Biochem. 74, 214-226 1977]. The results are set out in Table 2, where they are expressed in %-rel. against a blank sample, and represent the results of 3 series of measurements with triple determination.

Take Fructose palmitate: the values for the Collagenase inhibition in [1] (Conc. [w/v] 0.03), in assay [1] (Conc. [w/v] 0.1) and in assay [1] (Conc. [w/v] 0.3) were 4 %-rel, 41 %-rel and 78 %-rel, respectively. Besides, the results for the “Cell protein content in %” value with human keratinocytes (conc. 0.001 % w/v), in the assay with human keratinocytes (conc. 0.003 % w/v) and with human keratinocytes (conc. 0.01 % w/v) were 166%, 143% and 105%, respectively. The Cell counts in assay [2] (conc. 0.001 % w/v) was determined as 97 %-rel; in [2] (conc. 0.01 % w/v), 98 %-rel. For the same substance, the ROS released in assay [2] (conc. 0.001 % w/v) worked out at 81 %-rel; in [2] (conc. 0.01 % w/v), 42 %-rel. Further, the Cell proteins with human fibroblasts [3] (conc. 0.003 % w/v) was found to be 91 %-rel. Further, the GSH/proteins in the assay on human fibroblasts [3] (conc. 0.003 % w/v) turned out to be 81 %-rel.

On to Trehalose stearate, for which the “MIC, Staphylococcus epidermidis” value in assay [4] was 625 µg/mL. For the same substance, the “MIC, Propionibacterium acnes” value in the assay with Propionibacterium acnes [5] was determined as 1250 µg/mL. For the same substance, the “MIC, Staphylococcus aureus” value against Staphylococcus aureus [6] was >10000 µg/mL. Moreover, the Cell melanin is recorded as 81 %-rel in assay [7] (conc. 0.001 % w/v) and 41 %-rel in assay [7] (conc. 0.003 % w/v). Also, the Cell proteins is reported as 97 %-rel in [7] (conc. 0.001 % w/v), 93 %-rel in assay [7] (conc. 0.003 % w/v) and 124 %-rel in the assay with human fibroblasts [3] (conc. 0.001 % w/v). For the same substance, the “Inhibition zones, Staphylococcus epidermidis” value in assay [8] is on record as 11 mm. The “Inhibition zones, Propionibacterium acnes” value in the assay on Propionibacterium acnes [9] is 0 mm. For the same substance, in the assay with Staphylococcus aureus [10], the “Inhibition zones, Staphylococcus aureus” value came to 12 mm. Besides, the figures for the GSH/proteins in the assay on human fibroblasts [11] and in the assay on human fibroblasts [3] (conc. 0.001 % w/v) were 141 %-rel and 84 %-rel, respectively.

Trehalose palmitate returned a Collagenase inhibition in assay [1] (Conc. [w/v] 0.3) of 9 %-rel. In addition, the “Inhibition zones, Staphylococcus epidermidis” value in [8] was found to be 11 mm. Besides, in the assay with Propionibacterium acnes [9], the “Inhibition zones, Propionibacterium acnes” value was 0 mm. Further, the “Inhibition zones, Staphylococcus aureus” value in the assay on Staphylococcus aureus [10] amounted to 14 mm. In addition, in the assay on human fibroblasts [11], the GSH/proteins is on record as 125 %-rel. For the same substance, in the assay on human fibroblasts [3] (conc. 0.001 % w/v), the Cell proteins is given as 124 %-rel and the GSH/proteins was 87 %-rel.
